Data published in PubChem BioAssay AID248 (DTP/NCI, 2004).
Where “and” joins values, the source holds several entries; their conditions need not be identical. Equal entries are not always repeated. Inconclusive results and toxic doses are left out. Cut-off read from the data, not from the text of the source: active = T/C of 150% or more; inactive = T/C below 125%.

Test system: L1210 leukemia ip in BDF1 mice, survival T/C
Assay: NCI In Vivo Anticancer Drug Screen. Data for tumor model L1210 Leukemia (intraperitoneal) in B6D2F1 (BDF1) mice
Conditions: endpoint: mean survival time, higher = longer survival
Summary of the method: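 Transplanted-tumor mice were given test agent; controls received vehicle only. Survival readings from the two groups were divided (treated over control).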

[1] = dose: 100.0 mg/kg/injection, schedule: Q01DX009 (ip), vehicle: Klucel (hydroxypropylcellulose) (HPC)
[2] = dose: 100.0 mg/kg/injection, schedule: Q04DX003 (ip), vehicle: Klucel (hydroxypropylcellulose) (HPC)
[3] = dose: 200.0 mg/kg/injection, schedule: Q01DX009 (ip), vehicle: Klucel (hydroxypropylcellulose) (HPC)
[4] = dose: 200.0 mg/kg/injection, schedule: Q04DX003 (ip), vehicle: Klucel (hydroxypropylcellulose) (HPC)
[5] = dose: 400.0 mg/kg/injection, schedule: Q04DX003 (ip), vehicle: Klucel (hydroxypropylcellulose) (HPC)
[6] = dose: 400.0 mg/kg/injection, schedule: Q01DX009 (ip), vehicle: Klucel (hydroxypropylcellulose) (HPC)
[7] = dose: 100.0 mg/kg/injection, schedule: Q01DX001 (ip), vehicle: Klucel (hydroxypropylcellulose) (HPC)
[8] = dose: 200.0 mg/kg/injection, schedule: Q01DX001 (ip), vehicle: Klucel (hydroxypropylcellulose) (HPC)
[9] = dose: 400.0 mg/kg/injection, schedule: Q01DX001 (ip), vehicle: Klucel (hydroxypropylcellulose) (HPC)
[10] = dose: 100.0 mg/kg/injection, schedule: Q04DX002 (ip), vehicle: Klucel (hydroxypropylcellulose) (HPC)
[11] = dose: 200.0 mg/kg/injection, schedule: Q04DX002 (ip), vehicle: Klucel (hydroxypropylcellulose) (HPC)
[12] = dose: 400.0 mg/kg/injection, schedule: Q04DX002 (ip), vehicle: Klucel (hydroxypropylcellulose) (HPC)
[13] = dose: 100.0 mg/kg/injection, schedule: Q01DX009 (ip), vehicle: saline
[14] = dose: 75.0 mg/kg/injection, schedule: Q01DX001 (ip), vehicle: saline
[15] = dose: 150.0 mg/kg/injection, schedule: Q01DX001 (ip), vehicle: saline
[16] = dose: 12.5 mg/kg/injection, schedule: Q01DX009 (ip), vehicle: Klucel (hydroxypropylcellulose) (HPC)
[17] = dose: 25.0 mg/kg/injection, schedule: Q01DX009 (ip), vehicle: Klucel (hydroxypropylcellulose) (HPC)
[18] = dose: 100.0 mg/kg/injection, schedule: Q04DX003 (ip), vehicle: saline
[19] = dose: 200.0 mg/kg/injection, schedule: Q04DX003 (ip), vehicle: saline
[20] = dose: 400.0 mg/kg/injection, schedule: Q04DX003 (ip), vehicle: saline

Measured: T/C

Cc1cc(OS(=O)(=O)/C=C/c2ccccc2)c(C(C)C)cc1Cl
inactive: dose: 100.0 mg/kg/injection, schedule: Q01DX001 (ip), vehicle: acetone 93 % of control | dose: 100.0 mg/kg/injection, schedule: Q01DX009 (ip), vehicle: acetone 100 % of control | dose: 200.0 mg/kg/injection, schedule: Q01DX001 (ip), vehicle: acetone 98 % of control | dose: 200.0 mg/kg/injection, schedule: Q01DX009 (ip), vehicle: acetone 98 % of control | dose: 400.0 mg/kg/injection, schedule: Q01DX001 (ip), vehicle: acetone 98 % of control | dose: 400.0 mg/kg/injection, schedule: Q01DX009 (ip), vehicle: acetone 95 % of control

N=C(N)/C(N)=N\C1=NCCN1
inactive: [1] 101 % of control | [2] 95 % of control | dose: 178.0 mg/kg/injection, schedule: Q04DX003 (ip), vehicle: Klucel (hydroxypropylcellulose) (HPC) 97 % of control | [3] 101 % of control | [4] 93 % of control | dose: 266.0 mg/kg/injection, schedule: Q04DX003 (ip), vehicle: Klucel (hydroxypropylcellulose) (HPC) 92 % of control | [5] 90 % of control and 92 % of control | dose: 600.0 mg/kg/injection, schedule: Q04DX003 (ip), vehicle: Klucel (hydroxypropylcellulose) (HPC) 93 % of control

N#CCCN(Cc1ccncc1)CN1C(=O)c2ccccc2C1=O
inactive: [1] 101 % of control | [3] 87 % of control | [6] 96 % of control

O=C(c1ccccc1)C1NC1c1ccc([N+](=O)[O-])cc1 (configuration not stated)
inactive: dose: 50.0 mg/kg/injection, schedule: Q01DX001 (ip), vehicle: Klucel (hydroxypropylcellulose) (HPC) 89 % of control | [7] 97 % of control | [8] 97 % of control | [9] 92 % of control

CCCCCCCCCCCCCCCCn1/c(=N/N=C/c2ccccc2S(=O)(=O)O)sc2ccccc21
inactive: [1] 106 % of control | [2] 113 % of control | [3] 112 % of control | [4] 106 % of control | [6] 105 % of control | [5] 116 % of control

COc1ccc2c(c1)CSC(c1ccccc1)C2=O (configuration not stated)
inactive: [10] 105 % of control | [11] 97 % of control | [12] 90 % of control

CCCCCCCCCCCCCCCCCCNC(=S)OC
inactive: [10] 91 % of control | [11] 97 % of control | [12] 102 % of control

O=C(CCNc1ccccc1)c1ccccc1
inactive: dose: 50.0 mg/kg/injection, schedule: Q01DX009 (ip), vehicle: saline 95 % of control | [13] 95 % of control | dose: 100.0 mg/kg/injection, schedule: Q04DX002 (ip), vehicle: saline 105 % of control | dose: 200.0 mg/kg/injection, schedule: Q04DX002 (ip), vehicle: saline 108 % of control

O=C(OC1C=CCC1)c1ccc([N+](=O)[O-])cc1 (configuration not stated)
inactive: [2] 97 % of control | [4] 93 % of control | [5] 93 % of control

O=C(O)C1C2CCC3C(C(=O)O)C3C21 (configuration not stated)
inactive: [1] 100 % of control | [2] 97 % of control | [3] 97 % of control | [4] 101 % of control | [6] 92 % of control | [5] 98 % of control

CCCCCCCCCCCCCCCCCC(=O)N/N=C\c1ccc(O)c(OC)c1
inactive: [1] 95 % of control | [3] 90 % of control | [6] 88 % of control

NC(=O)NC(NC(N)=O)C(Cl)(Cl)Cl
inactive: [13] 101 % of control | dose: 100.0 mg/kg/injection, schedule: Q04DX003 (ip), vehicle: saline with Tween-80 100 % of control | dose: 200.0 mg/kg/injection, schedule: Q01DX009 (ip), vehicle: saline 102 % of control | dose: 200.0 mg/kg/injection, schedule: Q04DX003 (ip), vehicle: saline with Tween-80 100 % of control | dose: 400.0 mg/kg/injection, schedule: Q01DX009 (ip), vehicle: saline 102 % of control | dose: 400.0 mg/kg/injection, schedule: Q04DX003 (ip), vehicle: saline with Tween-80 100 % of control

Cc1ccc(N)cc1S(=O)(=O)F
inactive: [14] 107 % of control | [15] 98 % of control | dose: 300.0 mg/kg/injection, schedule: Q01DX001 (ip), vehicle: saline 103 % of control

O=C(NNc1ccccc1)OCCCl
inactive: [16] 95 % of control | [17] 101 % of control | dose: 50.0 mg/kg/injection, schedule: Q01DX009 (ip), vehicle: Klucel (hydroxypropylcellulose) (HPC) 107 % of control

O=C(O)c1cccc(O)c1[N+](=O)[O-]
inactive: [18] 97 % of control | [19] 95 % of control | [20] 97 % of control

CC(C)OC(=O)Nc1cccc([N+](=O)[O-])c1
inactive: [10] 105 % of control | [11] 91 % of control | [12] 97 % of control

COC1=C(N)C(=O)c2ncccc2C1=O
inactive: dose: 4.0 mg/kg/injection, schedule: Q01DX009 (ip), vehicle: acetone 105 % of control | dose: 8.0 mg/kg/injection, schedule: Q01DX009 (ip), vehicle: acetone 105 % of control | dose: 16.0 mg/kg/injection, schedule: Q01DX009 (ip), vehicle: acetone 102 % of control

OC(CC(O)(C(F)(F)Cl)C(F)(F)Cl)c1cccs1 (configuration not stated)
inactive: [18] 93 % of control | [19] 95 % of control | [20] 105 % of control

CCOc1ccc(NC(C)=O)c(O)c1
inactive: [14] 101 % of control | [15] 98 % of control

c1ccc(OCCOCCOc2ccccc2)cc1
inactive: dose: 75.0 mg/kg/injection, schedule: Q01DX009 (ip), vehicle: Klucel (hydroxypropylcellulose) (HPC) 96 % of control | [10] 98 % of control | dose: 150.0 mg/kg/injection, schedule: Q01DX009 (ip), vehicle: Klucel (hydroxypropylcellulose) (HPC) 114 % of control | [11] 102 % of control | dose: 300.0 mg/kg/injection, schedule: Q01DX009 (ip), vehicle: Klucel (hydroxypropylcellulose) (HPC) 96 % of control | [12] 91 % of control

FCCNCCF
inactive: dose: 5.0 mg/kg/injection, schedule: Q01DX001 (ip), vehicle: saline 101 % of control | dose: 10.0 mg/kg/injection, schedule: Q01DX001 (ip), vehicle: saline 112 % of control

O=c1ccc([N+](=O)[O-])c[nH]1.[Ag]
inactive: dose: 6.25 mg/kg/injection, schedule: Q01DX009 (ip), vehicle: Klucel (hydroxypropylcellulose) (HPC) 86 % of control | [16] 86 % of control | dose: 12.5 mg/kg/injection, schedule: Q04DX003 (ip), vehicle: Klucel (hydroxypropylcellulose) (HPC) 88 % of control | [17] 95 % of control | dose: 25.0 mg/kg/injection, schedule: Q04DX003 (ip), vehicle: Klucel (hydroxypropylcellulose) (HPC) 99 % of control

O=C(Nc1cccc(C(F)(F)F)c1)Nc1ccccn1
inactive: dose: 100.0 mg/kg/injection, schedule: Q01DX009 (ip), vehicle: gum acacia 99 % of control | dose: 200.0 mg/kg/injection, schedule: Q01DX009 (ip), vehicle: gum acacia 92 % of control | dose: 400.0 mg/kg/injection, schedule: Q01DX009 (ip), vehicle: gum acacia 89 % of control

CNc1c(C)cccc1C
inactive: dose: 50.0 mg/kg/injection, schedule: Q04DX003 (ip), vehicle: Klucel (hydroxypropylcellulose) (HPC) 105 % of control | [7] 104 % of control | [2] 94 % of control | [8] 102 % of control | [4] 101 % of control | [9] 107 % of control

Clc1cc(Cl)c2c(c1)Cc1cc(Cl)cc(N=Cc3ccc4c(c3)OCO4)c1-2
inactive: [1] 97 % of control | [2] 97 % of control | [3] 99 % of control | [4] 97 % of control | [5] 104 % of control

Cc1ccc(NCC(=O)NN)cc1
inactive: [10] 104 % of control | [11] 107 % of control

CNc1ccn(C2CCCO2)c(=O)n1 (configuration not stated)
inactive: dose: 100.0 mg/kg/injection, schedule: Q01DX001 (ip), vehicle: saline 104 % of control | dose: 200.0 mg/kg/injection, schedule: Q01DX001 (ip), vehicle: saline 104 % of control | dose: 400.0 mg/kg/injection, schedule: Q01DX001 (ip), vehicle: saline 104 % of control
